Experiment [1] deals with MDA-MB-231 cells. In words: Transwell invasion assay. Conditions: 100 nM, 24 hours. Format: cell-based, human. How it is done:
On the first day, 0.2× Basement Membrane Extract (BME) working solution was prepared by diluting 5×BME stock solution in 1× Travigen Inc. coating buffer. Briefly, 100 μL of 10× coating buffer was diluted in 900 μL of sterile water to make 1× coating buffer. Then 960 μL of 1× coating buffer was mixed with 40 μL of 5×BME to make working 0.2×BME solution. Corning Transwell permeable inserts (Costar Transwell chambers, Corning) were placed on a 24-well plate and 100 μL of 0.2×BME solution was added to each Transwell insert and incubated for 16 hours. Following day, MDA-MB-231 cells were trypsinized and cells were suspended in serum free medium. Approximately 100 μL from cell suspension (˜3×10^5 cells) was added to each Transwell insert followed by another 100 μL of exemplary compound or control containing serum free RPMI medium. The lower chamber was filled with 10% FBS containing RPMI medium and the whole setup was incubated at 37° C. 1-5% CO2 for 24 hours. After 24 hours, cell culture medium was removed from both lower and upper chambers and Transwell inserts were washed three times with PBS. […] Images were then analyzed by ImageJ software and number of cells on the bottom side of the membrane were counted and presented as a bar graph using Prism 7.0 (GraphPad). Differences among groups were analyzed by Welch's t-test and considered significant when P<0.05. […]

Another experiment deals with p-Fak(Y397). In words: Fak activation, western blot in PC3 cells. Type of experiment: cell-based, human. Particulars: serum deprived PC3 cells, 24 h. How it is done:
(§1) If not indicated otherwise, cells were seeded and grown to 80% confluency and were treated with compound or control for 24 hours. Subsequently, the growth media was removed and the cells lysed by the addition of lysis buffer (25 mM Tris, pH 7.4; 1% NP-40, 0.25% deoxycholate, 1 mM sodium vanadate, 10 mM sodium fluoride, 10 mM sodium pyrophosphate, 20 mM β-glycerophosphate and 1× complete EDTA-free protease inhibitor cocktail (Roche)). After 20 minutes the mixture was spun down at 16,000×g for 10 minutes at 4° C. to pellet insoluble materials. Protein concentration of supernatants were determined via BCA assay (Thermo Fisher) before addition of NuPAGE sample buffer containing 5% β-Me and boiling at 95° C. for 10 minutes. Equal amounts of protein were subjected to SDS-PAGE and subsequent electrophoretic transfer onto nitrocellulose membrane. Rabbit antibodies were purchased from Cell Signaling: Fak (3285), p-Fak (3283), p-Paxillin (2541), p-Akt (S473)(4060), GAPDH (2118), Androgen Receptor (5153), p-Src(Y527)(2105), p-S6RP (2215). Mouse antibodies were purchased from Cell Signaling: tubulin (3873), S6RP (2317). Secondary antibody ∝-rabbit (31460) or ∝-mouse (31444) was coupled to horseradish peroxidase and purchased from Thermo Fisher. Immunoblots were developed using enhanced chemiluminescence and visualized using a Bio-Rad Chemi-Doc MP Imaging System and quantitated with Image Lab v.5.2.1 software (Bio-Rad Laboratories). Data analysis and statistics was performed using Prism 7.0 (GraphPad).
Fak levels are undetectable at concentrations of 100 nM through 1 μM of exemplary compound 102, and slightly rebound at concentrations of 5 μM (10%) and 10 μM (27%) due to an observed hook effect. […] Paxillin, a downstream target of the Fak-Src complex, has been associated with cell migration. […] Akt is a kinase that is tied to the Fak signaling cascade via PI3K, but can be activated through other pathways as well. […] A maximum p-Akt suppression of 93% is observed at 1 μM of exemplary compound 102. […]

The target of another experiment is Fak (Homo sapiens, UniProt Q05397). In words: Fak degradation, immunoblotting in PC3 cells. Format: cell-based. Conditions: 24 hour treatment; for Dmax: PC-3, degradation maximum, n = 3. How it is done: PC3 cells were cultured in F12-K (Kaighn's Modification of Ham's F-12 Medium), supplemented with 10% fetal bovine serum (FBS) and 1% penicillin-streptomycin at 37° C. and 5% CO2.
Sequence of Fak (Q05397 whole entry): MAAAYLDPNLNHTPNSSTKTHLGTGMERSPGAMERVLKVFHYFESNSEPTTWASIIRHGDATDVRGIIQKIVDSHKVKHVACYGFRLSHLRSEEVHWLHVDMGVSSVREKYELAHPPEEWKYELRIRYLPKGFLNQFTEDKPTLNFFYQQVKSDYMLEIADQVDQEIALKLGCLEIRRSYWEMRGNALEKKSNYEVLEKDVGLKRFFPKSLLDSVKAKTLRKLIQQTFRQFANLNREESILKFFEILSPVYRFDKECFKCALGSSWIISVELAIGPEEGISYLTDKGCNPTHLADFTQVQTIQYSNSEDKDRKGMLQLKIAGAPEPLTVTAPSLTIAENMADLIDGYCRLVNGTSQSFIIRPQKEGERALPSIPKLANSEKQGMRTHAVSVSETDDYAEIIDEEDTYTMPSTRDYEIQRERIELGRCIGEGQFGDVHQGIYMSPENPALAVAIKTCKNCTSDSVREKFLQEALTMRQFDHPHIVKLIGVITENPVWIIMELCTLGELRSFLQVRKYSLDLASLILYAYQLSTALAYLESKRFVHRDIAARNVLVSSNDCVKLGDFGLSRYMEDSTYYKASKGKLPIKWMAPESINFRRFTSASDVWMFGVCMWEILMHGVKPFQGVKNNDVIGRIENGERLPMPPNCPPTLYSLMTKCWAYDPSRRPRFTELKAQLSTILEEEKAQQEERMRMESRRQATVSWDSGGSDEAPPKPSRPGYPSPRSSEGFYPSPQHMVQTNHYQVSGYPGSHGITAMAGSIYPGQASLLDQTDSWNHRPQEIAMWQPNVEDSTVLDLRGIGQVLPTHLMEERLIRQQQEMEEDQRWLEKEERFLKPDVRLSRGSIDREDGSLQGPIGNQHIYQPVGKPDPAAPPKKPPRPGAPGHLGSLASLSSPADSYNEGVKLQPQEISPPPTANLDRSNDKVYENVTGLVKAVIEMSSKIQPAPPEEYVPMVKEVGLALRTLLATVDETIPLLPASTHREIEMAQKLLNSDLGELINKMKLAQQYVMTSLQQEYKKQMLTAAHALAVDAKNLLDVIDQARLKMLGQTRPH
If not indicated otherwise, cells were seeded and grown to 80% confluency and were treated with compound or control for 24 hours. […] After 20 minutes the mixture was spun down at 16,000×g for 10 minutes at 4° C. to pellet insoluble materials. Protein concentration of supernatants were determined via BCA assay (Thermo Fisher) before addition of NuPAGE sample buffer containing 5% β-Me and boiling at 95° C. for 10 minutes. Equal amounts of protein were subjected to SDS-PAGE and subsequent electrophoretic transfer onto nitrocellulose membrane. […] Immunoblots were developed using enhanced chemiluminescence and visualized using a Bio-Rad Chemi-Doc MP Imaging System and quantitated with Image Lab v.5.2.1 software (Bio-Rad Laboratories). Data analysis and statistics was performed using Prism 7.0 (GraphPad).
Examination of Target Protein (Fak) Degradation.

The subject of another experiment is p-paxillin. The experiment can be described thus: Fak downstream signaling, western blot in PC3 cells. Type of experiment: cell-based, human. Particulars: serum deprived PC3 cells, 24 h. On the procedure:
as §1
(§2) Fak levels are undetectable at concentrations of 100 nM through 1 μM of exemplary compound 102, and slightly rebound at concentrations of 5 μM (10%) and 10 μM (27%) due to an observed hook effect. […] Paxillin, a downstream target of the Fak-Src complex, has been associated with cell migration. […] Akt is a kinase that is tied to the Fak signaling cascade via PI3K, but can be activated through other pathways as well. […] A maximum p-Akt suppression of 93% is observed at 1 μM of exemplary compound 102. […] A similar differential can be observed when exemplary compound 102 is compared to its non-degrading diastereomer exemplary compound 106 (FIGS. 9A-9F and 10A-10D). These differences are the result of the distinct MOA Fak degraders are able to provide compared to inhibitors.

Another experiment deals with p-Akt (S473). Described as above. Conditions: serum deprived PC3 cells, 24 h. Format: cell-based, human. On the procedure: as §1, §2
Experiment [2] has as its system MDA-MB-231 cells. In words: Cell proliferation assay (MTS). Conditions: 96 hours. Format: cell-based, human. On the procedure: (§3) Cells were seeded in 96-well plates and treated with exemplary compound or control as indicated. At desired time points culture medium was supplemented with […] MTS (Promega) and […] phenazine methosulfate (Sigma) and incubated at 37° C. Mitochondrial reduction of MTS to the formazan derivative was monitored by measuring the medium's absorbance at 490 nm using a Wallac Victor 2 plate reader (Perkin-Elmer Life Sciences). Data analysis and statistics was performed using Prism 7.0 (GraphPad).

In a further experiment the test system is PC3 cells. In words: Cell proliferation assay (MTS). Format: cell-based, human. Particulars: 96 h. How it is done:
as §3

From patent publication US20200038513A1, “MODULATORS OF FAK PROTEOLYSIS AND ASSOCIATED METHODS OF USE” (ARVINAS OPERATIONS, INC., priority 2018, published 2020) come the findings set out here.

For `CNC(=O)c1ccc(Nc2ncc(C(F)(F)F)c(NCc3nccnc3N(C)S(C)(=O)=O)n2)cc1` [Defactinib, defactinib, reference compound], the “effect on cell invasion (in words)” value with MDA-MB-231 cells [1] was “no significant effect”. Besides, the “lowest level of p-Fak activity (remaining)” value with p-Fak(Y397) (10 μM) turned out to be 26%. The maximal degradation (Dmax) on Fak (PC3 cells) was 0%. Also, the “maximum reduction of p-paxillin levels” value with p-paxillin (10 μM) is listed as 62%. Also, the “maximum reduction of p-Akt” value in the experiment with p-Akt (S473) (10 μM) was found to be 88%.

On to `Cc1ncsc1-c1ccc(CNC(=O)[C@@H]2C[C@@H](O)CN2C(=O)[C@@H](NC(=O)CCOCCOc2ccc(Nc3ncc(C(F)(F)F)c(NCc4cccc(N(C)S(C)(=O)=O)c4)n3)cc2)C(C)(C)C)cc1` [Compound 102, (2S,4R)-1-((S)-3,3-dimethyl-2-(3-(2-(4-((4-((3-(N-methylmethylsulfonamido)benzyl)amino)-5-(trifluoromethyl)pyrimidin-2-yl)amino)phenoxy)ethoxy)propanamido)butanoyl)-4-hydroxy-N-(4-(4-methylthiazol-5-yl)benzyl)pyrrolidine-2-carboxamide], for which the “reduction of cell invasion” value in the experiment on MDA-MB-231 cells [1] is reported as 65%. In addition, in the experiment on p-Fak(Y397) (between 100 nM and 5 μM), the p-Fak levels result is “less than 5%”. For the same molecule, the “Fak activation (p-Fak(Y397)) compared to DMSO (in words)” value with p-Fak(Y397) (increasing concentrations) is given as “significantly reduced”. This molecule also showed a Dmax at Fak (PC3 cells) of 99%. At Fak (half-maximal degradation concentration, PC3 cells), this molecule yielded a DC50 of 3.3 nM. Further, the “total Fak remaining” value is recorded as 34% at Fak (serum deprived PC3 cells, 10 nM) and 5% on Fak (serum deprived PC3 cells, 50 nM). The Fak levels entry at Fak (serum deprived PC3 cells, 100 nM through 1 μM) is reported as “undetectable”. For the same molecule, the “Fak levels (rebound, hook effect)” value is recorded as 10% at Fak (serum deprived PC3 cells, 5 μM) and 27% at Fak (serum deprived PC3 cells, 10 μM). Also, the “cell viability or proliferation (in words)” value in the experiment with MDA-MB-231 cells [2] and with PC3 cells was “do not affect cell viability or proliferation within four days” throughout. The “reduction of p-paxillin levels” value in the experiment with p-paxillin (above 50 nM) is 85-90%. In addition, in the experiment with p-Akt (S473) (1 μM), the “maximum p-Akt suppression” value is listed as 93%. Further, the “effect on p-Akt (S473) (in words)” value in the experiment with p-Akt (S473) (increasing concentrations) is given as “significant at all treatment concentrations”.
